“Also recorded” adds a separate entry of the source. Each block holds one molecule with its values, some of them ahead of it.
How the values were obtained:
BR55-2 [1] = assay: ELISA, binding of MAb BR55-2 to monovalent peptide; conditions: series of ELISA assays
Description: The Trp residue occupies a volume associated with the Fuca 1,3 moiety, and the Leu residue occupies the volume of the β Gal moiety and has the hydrophobic interaction of β Gal. The Tyr residue occupies a position not associated with LeY binding to B3. The computer modeling disclosed that the low energy binding mode conformation adopts a turn region similar to that observed for the YPY motif in binding to ConA [Kaur et al., 1997, J. Biol. Chem. 272:5539-5543]. This conformation lends itself to the Tyr residue of the peptide to potentially interact with several residues in CDR2 of the heavy chain of B3 that include Asp H53, Ser H52, Ser H55, or Ser H56.

[2] = system: neutrophil influx into chemically irritated peritoneum; assay: Neutrophil recruitment in Zymosan-induced peritonitis (acute inflammation model in vivo); conditions: mice, Zymosan i.p.
Experimental: The accumulation of neutrophils is a characteristic feature of acute and chronic inflammatory disease, and early steps in the recruitment of these cells to the site of inflammation depends upon E-selectin-mediated interaction. Thus, inhibition of neutrophil recruitment in vivo is an important test of the ability of potential therapeutic agents to inhibit E-selectin-mediated events. […] Because SA-Le^a binds to E-selectin, the adhesion-blocking ability of an SA-Le^a peptido-mimetic was measured in a neutrophil-recruitment in vivo model of acute inflammation.
The bioactivity of the 12-mer peptide SEQ ID NO: 1 which mimics the SA-Le^a carbohydrate structure was determined by administering Zymosan™ intraperitoneally (i.p.) into mice [see, e.g., Martens et al. 1995, J. Biol. Chem. 270:21129-21136; Rao et al. 1994, J. Biol. Chem. 269:19663-19666], followed three hours later by an intravenous (i.v.) injection of peptide SEQ ID NO: 1 (1 mg). Neutrophils were harvested and counted one hour later.
Derm. 78:206-209]. […] The reduction in enzyme activity is apparently due to reduction in neutrophil recruitment in mice treated with peptide mimicking E-selectin ligand SA-Le^a. This peptide inhibits E-selectin function in vivo.

MAb NS19-9 [3] = assay: ELISA, direct binding of MAb NS19-9 to peptide
MAb NS19-9 [4] = assay: Competition ELISA: peptide inhibition of MAb NS19-9 binding to solid phase SA-Le^a-PAA
Experimental: The peptide competition/inhibition assays referred to throughout the following examples are performed as follows: Test peptides at concentrations ranging from 10 nM to 1 mM were preincubated with 100 μl of the MAb NS19-9 (5 μg/ml) diluted in 10% […] free horse serum/PBS at room temperature. Fifty μl of preincubated inhibition complex antibody-peptide is added to each well of 96-well plate and incubated at 30-37° C. for 1 hour. After 1 hour of incubation, MAb/peptide complex mixtures were transferred to wells precoated with a constant amount of neoglycoprotein containing coupled multivalent carbohydrate determinant (SA-Le^a-polyacrylamide matrix (SA-LeX-PAA or LeY-PAA) (5 μg/well) and allowed to bind for 1 hour followed by blocking with 10% γ-globulin-free horse serum for 2 hours at room temperature. Wells were washed with 100 μl PBS four times. Goat anti-mouse immunoglobulin G conjugated to horse radish peroxidase (Boehringer-Manheim, Indianapolis, Ind.) was diluted 1000-fold with 10% γ-globulin free horse serum/PBS and 100 μl was added in each well and incubated at 30-37° C. for 1 hour and washed with 100 μl PBS five times. […] The developed blue color was read at 450 nm after stopping the reaction with 100 μl 1M phosphoric acid. Fifty % inhibitory concentration (IC50) was calculated by non-linear least-squares regression to a four-parameter logistic equation. […]

BR15-6A MAb = assay: ELISA, binding of MAb BR15-6A to solid phase coated peptide; conditions: solid phase coated peptide at 1 nM to 1 mM
Experimental: Peptide SEQ ID NO: 99 from the family of LeY-mimicking peptides was selected because it contained a consensus motif which appeared in multiple bacterial isolates after five rounds of panning with the BR15-6A MAb. This peptide was chemically synthesized and its binding to BR15-6A MAb was evaluated. […] It likely represents a conformational mimic of the LeY structure. This peptide is further evaluated in competition assays with native LeY containing neoglycoprotein and LeY-specific MAbs BR15-6A and BR55-2.

MAb BR15-6A = assay: Inhibition of MAb BR15-6A binding to LeY carbohydrate
Experimental: The peptide competition/inhibition assays referred to throughout the following examples are performed as follows: Test peptides at concentrations ranging from 10 nM to 1 mM were preincubated with 100 μl of the MAb NS19-9 (5 μg/ml) diluted in 10% […] free horse serum/PBS at room temperature. Fifty μl of preincubated inhibition complex antibody-peptide is added to each well of 96-well plate and incubated at 30-37° C. for 1 hour. […] The developed blue color was read at 450 nm after stopping the reaction with 100 μl 1M phosphoric acid. Fifty % inhibitory concentration (IC50) was calculated by non-linear least-squares regression to a four-parameter logistic equation. […]
Peptide SEQ ID NO: 99 from the family of LeY-mimicking peptides was selected because it contained a consensus motif which appeared in multiple bacterial isolates after five rounds of panning with the BR15-6A MAb. This peptide was chemically synthesized and its binding to BR15-6A MAb was evaluated. […] This peptide is further evaluated in competition assays with native LeY containing neoglycoprotein and LeY-specific MAbs BR15-6A and BR55-2.

BR55-2 [5] = assay: Competition of peptide with LeY for BR55-2 binding
MAb NS19-9 [6] = assay: competition ELISA; peptide preincubated with MAb NS19-9, free MAb binding to SA-Le^a-PAA

binding of MAb BR15-6A to peptide (in words) (BR15-6A MAb): Dose-dependent binding
inhibition of MAb BR15-6A binding to LeY (in words) (MAb BR15-6A): inhibit MAb BR15-6A binding
Molecule: DEVRPDLISTEE (peptido-mimetic of a Lewis antigen) [SEQ ID NO: 99]

IC50 (MAb NS19-9 [6]): 700 µM
Molecule: DLWDWVVGKPAG [peptide …]

Continued, molecule first:

Molecule: APWLYGPA (peptido-mimetic of a Lewis antigen) [SEQ ID NO: 121]
binding of BR55-2 to monovalent peptide (in words) (BR55-2 [1]): does not bind

Molecule: DLWDWVVGKPAG [SEQ ID NO: 1]
myeloperoxidase activity in collected cells (in words) ([2]; 1 mg peptide i.v.): Significant reduction of enzymatic activity
number of neutrophils in peritoneal lavage fluids (in words) ([2]; 1 mg peptide i.v. three hours later, harvest one hour later): reduced the number of neutrophils; also recorded: reduction of neutrophil influx; also recorded: partially inhibit neutrophil recruitment
binding of MAb NS19-9 to peptide (in words) (MAb NS19-9 [3]): dose-dependent binding
blocking of MAb NS19-9 binding to SA-Le^a-PAA (in words) (MAb NS19-9 [4]): blocked the binding of MAb NS 19-9
IC50 (MAb NS19-9 [4]; MAb NS19-9 5 μg/ml, solid phase SA-Le^a-PAA, read-out: IC50, blocking of MAb NS19-9 binding to SA-Le^a-PAA): 700 µM

Molecule: FSLLW (peptido-mimetic of a Lewis antigen) [SEQ ID NO: 114]
competition with LeY for BR55-2 binding (in words) (BR55-2 [5]): competes with LeY for BR55-2 binding

Reference: US6960566B1, “Compositions and methods for treatment of cancer” (The Wister Institute of Anatomy and Biology, priority 1998, dated 2005)
